US20240051946A1, “TARGETED PROTEIN DEGRADATION OF PARP14 FOR USE IN THERAPY” (Ribon Therapeutics, Inc., priority 2022, published 2024)
Where a name gives a salt, the structure may show the parent alone. Read-outs that look alike come from different tables or passages of the source.

Experiments:
[1] = biological target: T1, catalytic domain of human PARP14 (residues 1611 to 1801) with NanoLuc tag (Homo sapiens, UniProt Q460N5); assay: NanoLuc assay for the degradation of PARP14; assay type: cell-based; settings: Assay A; NanoLuc-PARP14 overexpressed in HEK-293T cells; 2 hours at 37 degrees; luminescence
T1 construct: expressed in transfected cells; host or cells: HEK-293T cells (ATCC), plasmid pRTX240 in pcDNA3.1(-)
T1 sequence (Q460N5 1611-1801): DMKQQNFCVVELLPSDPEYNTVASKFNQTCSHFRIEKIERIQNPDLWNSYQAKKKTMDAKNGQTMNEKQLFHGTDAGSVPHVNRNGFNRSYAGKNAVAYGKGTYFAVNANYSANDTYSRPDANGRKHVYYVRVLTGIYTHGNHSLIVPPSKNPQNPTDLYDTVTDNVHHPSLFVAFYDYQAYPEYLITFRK
Method in brief: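 HEK-293T cells transiently transfected 24 hrs with N-terminal NanoLuc-tagged human PARP14 catalytic domain (residues 1611-1801), then exposed to compound dose response for 2 hours at 37 degrees. NanoGlo luminescence expressed as % of 0.1% DMSO wells; DC50 from floating 4-parameter fit, reported as banded ranges.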

[2] = biological target: T2, PARP14 (Homo sapiens, UniProt Q460N5); assay: HiBiT assay for the degradation of PARP14 (HiBiT tagged PARP14 in LgBiT expressing Jurkat cells); assay type: cell-based; settings: Assay B, 37° C. for 2 or 24 hours, luminescence
T2 construct: engineered to contain a HiBiT tag on both alleles of the PARP14 gene; endogenous in cells; host or cells: Jurkat cells stably expressing LgBiT (Promega), with CRISPR/Cas9 knock-in of HiBiT at the PARP14 locus
T2 sequence (Q460N5 whole entry): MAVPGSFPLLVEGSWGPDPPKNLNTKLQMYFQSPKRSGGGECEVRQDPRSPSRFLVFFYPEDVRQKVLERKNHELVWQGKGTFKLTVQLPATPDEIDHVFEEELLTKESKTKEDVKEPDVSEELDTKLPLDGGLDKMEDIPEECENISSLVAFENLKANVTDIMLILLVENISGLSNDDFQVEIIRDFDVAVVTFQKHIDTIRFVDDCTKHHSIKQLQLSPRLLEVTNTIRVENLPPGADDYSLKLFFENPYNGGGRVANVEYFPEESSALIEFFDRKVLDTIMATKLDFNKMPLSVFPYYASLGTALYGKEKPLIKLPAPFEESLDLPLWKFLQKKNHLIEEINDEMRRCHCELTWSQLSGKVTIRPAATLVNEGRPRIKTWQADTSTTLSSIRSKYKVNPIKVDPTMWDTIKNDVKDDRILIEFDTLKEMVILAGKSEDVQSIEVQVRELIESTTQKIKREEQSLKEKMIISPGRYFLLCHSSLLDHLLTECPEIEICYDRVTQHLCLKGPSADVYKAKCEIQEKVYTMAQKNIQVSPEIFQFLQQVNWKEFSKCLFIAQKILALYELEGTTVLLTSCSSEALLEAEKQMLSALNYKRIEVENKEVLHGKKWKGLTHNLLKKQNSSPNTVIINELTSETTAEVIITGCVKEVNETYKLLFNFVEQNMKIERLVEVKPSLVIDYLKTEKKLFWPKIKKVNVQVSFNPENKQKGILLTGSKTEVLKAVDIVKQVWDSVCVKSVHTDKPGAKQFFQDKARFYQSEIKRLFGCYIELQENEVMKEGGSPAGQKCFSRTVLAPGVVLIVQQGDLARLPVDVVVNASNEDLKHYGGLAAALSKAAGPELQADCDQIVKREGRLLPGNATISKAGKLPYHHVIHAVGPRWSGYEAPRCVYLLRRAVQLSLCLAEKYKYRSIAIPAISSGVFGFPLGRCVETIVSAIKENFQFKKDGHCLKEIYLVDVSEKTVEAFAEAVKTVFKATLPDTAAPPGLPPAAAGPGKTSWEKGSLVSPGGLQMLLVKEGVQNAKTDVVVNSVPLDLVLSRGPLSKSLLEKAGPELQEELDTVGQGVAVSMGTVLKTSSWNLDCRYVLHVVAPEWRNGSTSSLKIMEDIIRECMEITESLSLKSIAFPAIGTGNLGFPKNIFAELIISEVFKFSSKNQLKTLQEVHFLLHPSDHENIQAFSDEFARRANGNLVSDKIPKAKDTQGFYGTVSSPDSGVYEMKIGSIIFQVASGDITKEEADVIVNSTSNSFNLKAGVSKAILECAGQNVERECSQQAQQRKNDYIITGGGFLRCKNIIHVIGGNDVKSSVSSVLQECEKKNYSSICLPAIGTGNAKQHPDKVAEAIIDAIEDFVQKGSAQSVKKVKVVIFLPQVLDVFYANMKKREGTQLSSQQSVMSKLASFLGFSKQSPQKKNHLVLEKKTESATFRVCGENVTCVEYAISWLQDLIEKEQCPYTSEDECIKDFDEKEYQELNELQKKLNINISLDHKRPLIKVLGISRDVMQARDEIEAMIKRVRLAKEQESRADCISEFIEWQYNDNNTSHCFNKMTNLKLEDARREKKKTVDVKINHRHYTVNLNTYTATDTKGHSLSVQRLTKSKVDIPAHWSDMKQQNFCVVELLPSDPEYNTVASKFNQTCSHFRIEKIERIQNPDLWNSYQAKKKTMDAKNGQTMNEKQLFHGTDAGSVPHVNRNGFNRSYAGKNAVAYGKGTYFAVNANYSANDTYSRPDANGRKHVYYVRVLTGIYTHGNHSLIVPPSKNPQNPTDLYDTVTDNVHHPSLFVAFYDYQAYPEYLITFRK
Description: Jurkat cells stably transfected with LgBiT (Promega) were engineered to contain a HiBiT tag on both alleles of the PARP14 gene (Genbank Accession Number: NM_017554) via CRISPR/Cas9 editing. The HiBiT tag is an 11 amino acid tag created by Promega that associates with LgBiT protein to form the NanoLuc® tag on the C-terminus of PARP14. Clones were isolated and confirmed for the HiBiT tag via Sanger sequencing.
Degradation of PARP14 protein was assessed by measuring the luminescence of the HiBiT tag associating with the LgBiT protein as a proxy for the PARP14 protein. Jurkat cells were diluted to 250,000 cells per mL and then added to assay plate (Corning 3574) using a Multidrop (Thermo Fisher) to add 20 μL per well of the 384 well plate, resulting in 5,000 cells per well. 20 nL of a dose response curve diluted in DMSO of each test compound was added to the cell plate using a Mosquito (TTP Labtech) and the plate was incubated at 37° C. for 2 or 24 hours. Assay plate was brought to room temperature then 5 μL per well of Live Cell Substrate (Promega) was added to the plate. Luminescence was measured on an Envision (Perkin Elmer).
The average DMSO was calculated from 32 wells containing 0.1% DMSO only in columns 12 and 24 of the assay plate. The % of DMSO values were calculated as described below: […]
The % of DMSO values were plotted as a function of compound concentration and the following 4-parameter fit was applied to derive the DC50 values:
where top, bottom, and Hill Coefficient are allowed to float. Y is the % of DMSO and X is the compound concentration.
DC50 data for the Example compounds is provided below in Table 2 (“+” is <0.03 μM; “++” is ≥0.03 μM).

Row | DC50 ([2]; read-out: DC50) | Structure (SMILES) | also measured
1 |  | CC(=O)N1CCC(COc2cc(F)c3c(=O)[nH]c(CSC4CCN(CC5CN(c6cccc7c6CN(C6CCC(=O)NC6=O)C7=O)C5)CC4)nc3c2)CC1 (stereo not drawn) [Example 41, 3-(4-(3-((4-(((7-((1-acetylpiperidin-4-yl)methoxy)-5-fluoro-4-oxo-3,4-dihydroquinazolin-2-yl)methyl)thio)piperidin-1-yl)methyl)azetidin-1-yl)-1-oxoisoindolin-2-yl)piperidine-2,6-dione] | DC50 [1]: < 100 nM
2 |  | O=C1CCC(Nc2ccc(N3CCN(CCN4CCC(SCc5nc6cc(OCC7CC7)cc(F)c6c(=O)[nH]5)CC4)CC3)cc2)C(=O)N1 (stereo not drawn) [Example 42, 3-((4-(4-(2-(4-(((7-(cyclopropylmethoxy)-5-fluoro-4-oxo-3,4-dihydroquinazolin-2-yl)methyl)thio)piperidin-1-yl)ethyl)piperazin-1-yl)phenyl)amino)piperidine-2,6-dione] | DC50 [2]: < 30 nM
3 | < 30 nM | O=C1CCC(Nc2ccc(N3CCN(CCN4CCC(SCc5nc6cc(OCC7CCOCC7)cc(F)c6c(=O)[nH]5)CC4)CC3)cc2)C(=O)N1 (stereo not drawn) [Example 43, 3-((4-(4-(2-(4-(((5-fluoro-4-oxo-7-((tetrahydro-2H-pyran-4-yl)methoxy)-3,4-dihydroquinazolin-2-yl)methyl)thio)piperidin-1-yl)ethyl)piperazin-1-yl)phenyl)amino)piperidine-2,6-dione] | 
4 | < 30 nM | O=C1CCC(Nc2ccc(N3CCN(CCN4CCC(OCc5nc6cc(OCC7CCOCC7)cc(F)c6c(=O)[nH]5)CC4)CC3)c(F)c2)C(=O)N1 (stereo not drawn) [Example 44, 3-((3-fluoro-4-(4-(2-(4-((5-fluoro-4-oxo-7-((tetrahydro-2H-pyran-4-yl)methoxy)-3,4-dihydroquinazolin-2-yl)methoxy)piperidin-1-yl)ethyl)piperazin-1-yl)phenyl)amino)piperidine-2,6-dione] | 
5 | < 30 nM | O=C1CCC(Nc2ccc(N3CCN(CCN4CCC(OCc5nc6cc(OCC7CC7)cc(F)c6c(=O)[nH]5)CC4)CC3)c(F)c2)C(=O)N1 (stereo not drawn) [Example 45, 3-((4-(4-(2-(4-((7-(cyclopropylmethoxy)-5-fluoro-4-oxo-3,4-dihydroquinazolin-2-yl)methoxy)piperidin-1-yl)ethyl)piperazin-1-yl)-3-fluorophenyl)amino)piperidine-2,6-dione] | 
6 | < 30 nM | O=C1CCC(Nc2ccc(N3CCN(CCN4CCC(SCc5nc6cc(OCC7CCOCC7)cc(F)c6c(=O)[nH]5)CC4)CC3)c(F)c2)C(=O)N1 (stereo not drawn) [Example 46, 3-((3-fluoro-4-(4-(2-(4-(((5-fluoro-4-oxo-7-((tetrahydro-2H-pyran-4-yl)methoxy)-3,4-dihydroquinazolin-2-yl)methyl)thio)piperidin-1-yl)ethyl)piperazin-1-yl)phenyl)amino)piperidine-2,6-dione] | 
7 | < 30 nM | O=C1CCC(Nc2ccc(N3CCN(CCN4CCC(SCc5nc6cc(OCC7CC7)cc(F)c6c(=O)[nH]5)CC4)CC3)c(F)c2)C(=O)N1 (stereo not drawn) [Example 47, 3-((4-(4-(2-(4-(((7-(cyclopropylmethoxy)-5-fluoro-4-oxo-3,4-dihydroquinazolin-2-yl)methyl)thio)piperidin-1-yl)ethyl)piperazin-1-yl)-3-fluorophenyl)amino)piperidine-2,6-dione] | 
8 | < 30 nM | O=C1CCC(Nc2ccc(N3CCC(N4CC(N5CCC(SCc6nc7cc(OCC8CC8)cc(F)c7c(=O)[nH]6)CC5)C4)CC3)c(F)c2)C(=O)N1 (stereo not drawn) [Example 48, 3-((4-(4-(3-(4-(((7-(cyclopropylmethoxy)-5-fluoro-4-oxo-3,4-dihydroquinazolin-2-yl)methyl)thio)piperidin-1-yl)azetidin-1-yl)piperidin-1-yl)-3-fluorophenyl)amino)piperidine-2,6-dione] | 
9 | < 30 nM | O=C1CCC(N2C(=O)c3cccc4c(N5CCN(CCN6CCC(SCc7nc8cc(OCC9CC9)cc(F)c8c(=O)[nH]7)CC6)CC5)ccc2c34)C(=O)N1 (stereo not drawn) [Example 49, 3-(6-(4-(2-(4-(((7-(cyclopropylmethoxy)-5-fluoro-4-oxo-3,4-dihydroquinazolin-2-yl)methyl)thio)piperidin-1-yl)ethyl)piperazin-1-yl)-2-oxobenzo[cd]indol-1(2H)-yl)piperidine-2,6-dione] | 
10 | < 30 nM | O=C1CCC(N2Cc3cc(N4CCC(CN5CCC(SCc6nc7cc(OCC8CC8)cc(F)c7c(=O)[nH]6)CC5)CC4)ccc3C2=O)C(=O)N1 (stereo not drawn) [Example 50, 3-(5-(4-((4-(((7-(cyclopropylmethoxy)-5-fluoro-4-oxo-3,4-dihydroquinazolin-2-yl)methyl)thio)piperidin-1-yl)methyl)piperidin-1-yl)-1-oxoisoindolin-2-yl)piperidine-2,6-dione] | 
11 | < 30 nM | O=C1CCC(Nc2ccc(N3CCC(N4CC(N5CCC(SCc6nc7cc(OCC8CCOCC8)cc(F)c7c(=O)[nH]6)CC5)C4)CC3)c(F)c2)C(=O)N1 (stereo not drawn) [Example 51, 3-((3-fluoro-4-(4-(3-(4-(((5-fluoro-4-oxo-7-((tetrahydro-2H-pyran-4-yl)methoxy)-3,4-dihydroquinazolin-2-yl)methyl)thio)piperidin-1-yl)azetidin-1-yl)piperidin-1-yl)phenyl)amino)piperidine-2,6-dione formate] | 
12 | < 30 nM | O=C1CCC(Nc2ccc(N3CCC(N4CCC(SCc5nc6cc(OCC7CCOCC7)cc(F)c6c(=O)[nH]5)CC4)CC3)c(F)c2)C(=O)N1 (stereo not drawn) [Example 52, 3-((3-fluoro-4-(4-(((5-fluoro-4-oxo-7-((tetrahydro-2H-pyran-4-yl)methoxy)-3,4-dihydroquinazolin-2-yl)methyl)thio)-[1,4′-bipiperidin]-1′-yl)phenyl)amino)piperidine-2,6-dione] | 
13 | < 30 nM | O=C1CCC(Nc2ccc(N3CCC(N4CCC(OCc5nc6cc(OCC7CC7)cc(F)c6c(=O)[nH]5)CC4)CC3)c(F)c2)C(=O)N1 (stereo not drawn) [Example 53, 3-((4-(4-((7-(cyclopropylmethoxy)-5-fluoro-4-oxo-3,4-dihydroquinazolin-2-yl)methoxy)-[1,4′-bipiperidin]-1′-yl)-3-fluorophenyl)amino)piperidine-2,6-dione] | 
14 | < 30 nM | O=C1CCC(Nc2ccc(N3CCC(N4CCC(SCc5nc6cc(OCC7CC7)cc(F)c6c(=O)[nH]5)CC4)CC3)c(F)c2)C(=O)N1 (stereo not drawn) [Example 54, 3-((4-(4-(((7-(cyclopropylmethoxy)-5-fluoro-4-oxo-3,4-dihydroquinazolin-2-yl)methyl)thio)-[1,4′-bipiperidin]-1′-yl)-3-fluorophenyl)amino)piperidine-2,6-dione formate] | 
15 | < 30 nM | O=C1CCC(Nc2ccc(N3CCN(CCO[C@H]4CC[C@H](SCc5nc6cc(OCC7CC7)cc(F)c6c(=O)[nH]5)CC4)CC3)c(F)c2)C(=O)N1 (stereo partly drawn) [Example 55, 3-((4-(4-(2-(((1r,4r)-4-(((7-(cyclopropylmethoxy)-5-fluoro-4-oxo-3,4-dihydroquinazolin-2-yl)methyl)thio)cyclohexyl)oxy)ethyl)piperazin-1-yl)-3-fluorophenyl)amino)piperidine-2,6-dione] | 
16 | < 30 nM | O=C1CCC(Nc2ccc(N3CCC(CN4CCC(SCc5nc6cc(OCC7CC7)cc(F)c6c(=O)[nH]5)CC4)CC3)c(F)c2)C(=O)N1 (stereo not drawn) [Example 56, 3-((4-(4-((4-(((7-(cyclopropylmethoxy)-5-fluoro-4-oxo-3,4-dihydroquinazolin-2-yl)methyl)thio)piperidin-1-yl)methyl)piperidin-1-yl)-3-fluorophenyl)amino)piperidine-2,6-dione formate] | 
17 | < 30 nM | O=C1CCC(Nc2ccc(N3CCC(N4CCC(SCc5nc6cc(OCC7CC7)cc(F)c6c(=O)[nH]5)CC4)CC3)c(C(F)(F)F)c2)C(=O)N1 (stereo not drawn) [Example 57, 3-((4-(4-(((7-(cyclopropylmethoxy)-5-fluoro-4-oxo-3,4-dihydroquinazolin-2-yl)methyl)thio)-[1,4′-bipiperidin]-1′-yl)-3-(trifluoromethyl)phenyl)amino)piperidine-2,6-dione] | 
18 | < 30 nM | O=C1CCC(Nc2cc(F)c(N3CCC(N4CCC(SCc5nc6cc(OCC7CC7)cc(F)c6c(=O)[nH]5)CC4)CC3)cc2F)C(=O)N1 (stereo not drawn) [Example 58, 3-((4-(4-(((7-(cyclopropylmethoxy)-5-fluoro-4-oxo-3,4-dihydroquinazolin-2-yl)methyl)thio)-[1,4′-bipiperidin]-1′-yl)-2,5-difluorophenyl)amino)piperidine-2,6-dione] | 
